# Experimental data as given in US8318801B2, “Cinnamic compounds and derivatives therefrom for the inhibition of histone deacetylase” (Naturewise Biotech & Medicals Corporation, priority 2009, dated 2012).
# Entries after “also recorded” stand apart in the source; their conditions may differ.
# Assays:
# [1] = system: tumor cell lines; conditions: cited from earlier work
# [2] = system: human breast cancer MDA-MB-231 cells; assay: Inhibition of cancer cell growth and change of morphology; format: cell-based; conditions: for inhibition of MDA-MB-231 cells: MDA-MB-231 cells (FIG. 9); for change of cell morphology / inhibition of cell growth: MDA-MB-231 cells; for change of cell morphology: 72 hours (FIG. 6(a)); for inhibition of cell growth: various concentrations, 72 hrs (FIG. 6(a))
# Protocol: Their results were counted by a trypan blue exclusion assay (see FIG. 9(f)).
# (§1) Five cancer cell lines, Rat C6 giloma cells, Human breast cancer MCF-7 cells, Human glioma Hs683 cells, Human glioblastoma 05-MG cells, and Human lung cancer A549 cells, were cultured in Dulbecco's modified Eagle's medium (DMEM; Gibco) containing 10% fetal bovine serum (FBS) and 1% penicillin/streptomycin, and were kept at 37° C. in a humidified atmosphere of 95% air and 5% CO2. Human breast cancer. MDA-MB-231 cells were cultured in L-15 medium (Gibco) containing 10% fetal bovine serum (FBS), 1% penicillin/streptomycin, and 2 mM glutamine, and were maintained at 37° C. in a humidified atmosphere of 95% air and 0% CO2. For these experiments, the cells were seeded in 6-well plates or a 60-mm dish. After 24 hours, the cells were treated with different concentrations of the various compounds. […] Human glioblastoma 05-MG cells were treated with NBM-C-BCX-OS01 (1.0, 2.0, 4.0 μg/mL) and NBM-C-BMX-OS01 (1.0, 2.0, 4.0 μg/mL) for 72 hours (see FIG. 5(e)). […] The results were counted by a trypan blue exclusion assay (see FIG. 6(b)).
# [3] = system: Human glioma Hs683 cells; assay: Inhibition of cancer cell growth; format: cell-based; conditions: Hs683 cells, 1.0, 2.0 and 4.0 μg/mL, 72 hours (FIG. 8)
# Protocol: Their results were counted by a trypan blue exclusion assay (see FIG. 8(e)).
# as §1
# [4] = system: Human lung cancer A549 cells; assay: Cell cycle analysis by flow cytometry (propidium iodide); format: cell-based; conditions: A549 cells (FIG. 10(a), (b))
# Protocol: Human lung cancer A549 cells, Human glioma Hs683 cells and Human glioblastoma 05-MG cells were seeded 1×10^6 cells in a 100-mm dish. After 24 hours of incubation in DMEM+10% BSA, Human lung cancer A549 cells were treated with NBM-HB-OS01 (2.5, 5.0, 7.5, 10.0 μg/mL) for 24 hours and were treated with NBM-C-BCX-OS01 (2.5, 5.0, 7.5 μg/mL) and NBM-C-BMX-OS01 (2.5, 5, 7.5 μg/mL) for 72 hours. Human glioblastoma 05-MG cells were treated with NBM-C-BCX-OS01 (1.0, 2.0, 4.0 μg/mL) and NBM-C-BMX-OS01 (1.0, 2.0, 4.0 μg/mL) for 72 hours. Human glioma Hs683 cells were treated with NBM-C-BCX-OS01 (1.0, 2.0, 4.0 μg/mL). For cell cycle analysis, cells were fixed in 80% ethanol for 1 hour (or overnight) at −20° C. and then incubated with 2 μg/mL RNase A for 30 minutes at 37° C. Cells were stained with propidium iodide ([…] PI) in PBS and analyzed using a Becton Dickinson flow cytometer, BD FACScan and CellQuest acquisition and analysis programs. […] Human glioma Hs683 cells were treated with NBM-C-BCX-OS01 (1.0, 2.0, 4.0 μg/mL) for 72 hours.
# [5] = system: Human breast cancer MCF-7 cells; assay: Cell cycle analysis by flow cytometry; format: cell-based; conditions: MCF-7 cells (FIG. 10(c) to (e))
# [6] = system: Rat C6 glioma cells; assay: Inhibition of cancer cell growth and change of morphology; format: cell-based; conditions: Rat C6 glioma cells
# Protocol: (§2) Three cancer cell lines, Rat C6 giloma cells, Human breast cancer MCF-7 cells, and Human lung cancer A549 cells, were cultured in Dulbecco's modified Eagle's medium (DMEM; Gibco) containing 10% fetal bovine serum (FBS) and 1% penicillin/streptomycin. All three cell lines were maintained at 37° C. in a humidified atmosphere of 95% air and 5% CO2. For the experiments, the cells were seeded in 6-well plates. After 24 hours, the cells were treated with different concentrations of the various compounds.
# as §1
# [7] = system: Human lung cancer A549 cells; assay: Inhibition of cancer cell growth; format: cell-based; conditions: 72 hrs, NBM-C-BX-OS01 7.5, others 2.5, 5.0, 7.5 μg/mL (FIG. 5(b))
# Protocol: as §2, §1
# [8] = system: acetyl-Histone H3, acetyl-Histone H4, acetyl-tubulin, p21, CTPS, Gelsolin, Hsp90, acetyl-Hsp90 in Human glioma Hs683 cells; assay: Immunoblotting of histones and HDAC associated proteins; format: cell-based; conditions: Hs683 cells, 1.0, 2.0, 4.0 μg/mL
# Protocol: Human glioma Hs683 cells were seeded at 5×10^5 cells in a 60-mm dish or 1×10^6 cells in a 100-mm dish. After 24 hours, Human glioma Hs683 cells were treated with different doses of NBM-C-BCX-OS01, NBM-C-BMX-OS01 (1.0, 2.0, 4.0 μg/mL), and vorinostat (SAHA, 5 μM) for 72 hours. Lysates of Hs683 cells were prepared for the immunoblotting of acetyl-Histone H3 (Cell Signaling Technology, Inc.), acetyl-Histone H4 (Upstate), acetyl-tubulin (Sigma Chemical Co.), p21 (BD Pharmingen Technology, Inc.), CTPS (ABNOVA TAIWAN Corporation), Gelsolin (Sigma Chemical Co.), Hsp90 (Cell Signaling Technology, Inc.), acetyl-Hsp90 (ROCKLAND, Inc.) and actin (Sigma Chemical Co.). Proteins were detected by chemiluminescence (ECL, Amersham). […] SAHA was used as a positive control and β-actin as an internal control (see FIG. 7(b)).
# [9] = system: Human glioblastoma 05-MG cells; assay: Inhibition of cancer cell growth; format: cell-based; conditions: 05-MG cells, 1.0, 2.0, 4.0 μg/mL, 72 hrs (FIG. 5(e))
# Protocol: as §1
smiles,measurement,setting,value
Cc1[nH]c2ccccc2c1CCNCc1ccc(/C=C/C(=O)NO)cc1 [LBH589],growth inhibition and regression by triggering apoptosis,[1],induces growth inhibition and regression
"COc1ccc(/C=C\C(=O)NO)c(OCc2ccc(Br)cc2)c1CC=C(C)C [NBM-C-BBX-OS01, (Z)-2-(4-Bromobenzoxy)-3-prenyl-4-methoxy-N-hydroxycinamide]",inhibition of MDA-MB-231 cells,[2],inhibition of human breast cancer MDA-MB-231 cells
same,inhibition of cell growth,[3],inhibition of cell growth
same,cell cycle arrest phase,[4],arrested the human lung cancer A549 cells on the S and G2/M phases
same,cell cycle arrest phase,[5],arrested the human breast cancer MCF-7 cells on the S and G2/M phases
"COc1ccc(/C=C/C(=O)Nc2ccccc2N)c(OCc2ccc(Cl)cc2)c1CC=C(C)C [NBM-C-BCA-OS01, (E)-2-(4-Chlorobenzoxy)-3-prenyl-4-methoxy-N-(2-aminophenyl) cinamide]",inhibition of cell growth,"[6]; 7.5 μg/mL, 48 hrs (FIG. 4)",inhibited the Rat C6 glioma cell growth
same,inhibition of cell growth,"[6]; 7.5 μg/mL, 48 hrs (FIG. 4), listed as NBM-C-BA-OS01 (17d)",inhibited the Rat C6 glioma cells growth
"COc1ccc(/C=C\C(=O)NO)c(OCc2ccc(F)cc2)c1CC=C(C)C [NBM-C-BFX-OS01, (Z)-2-(4-Fluorobenzoxy)-3-prenyl-4-methoxy-N-hydroxycinamide]",change of cell morphology,[2],changed the morphology of the cells
same,inhibition of cell growth,[2],inhibition of the cell growth of human breast cancer MDA-MB-231 cells was observed; also recorded: inhibited the growth
"COc1ccc(COc2c(/C=C/C(=O)Nc3ccccc3N)ccc(OC)c2CC=C(C)C)cc1 [NBM-C-BMA-OS01, (E)-2-(4-Methoxyhenzoxy)-3-prenyl-4-methoxy-N-(2-aminophenyl) cinamide]",inhibition of cell growth,"[6]; 7.5 μg/mL, 48 hrs (FIG. 4)",inhibited the Rat C6 glioma cell growth
"COc1ccc(COc2c(/C=C\C(=O)NO)ccc(OC)c2CC=C(C)C)cc1 [NBM-C-BMX-OS01, (Z)-2-(4-Methoxyhenzoxy)-3-prenyl-4-methoxy-N-hydroxycinamide]",inhibition of cell growth,"[6]; 24 hrs, NBM-C-BA-OS01 5 μg/mL, others 2.5, 5.0 μg/mL (FIG. 5(a))",inhibited the cell growth
same,"inhibition of cell growth, similar to dose-dependent A549 result","[6]; various concentrations, 24 hrs (FIG. 5(c))",the results were similar
same,change of cell morphology,[2],changed the morphology of the cells
same,inhibition of cell growth,[2],inhibition of the cell growth of human breast cancer MDA-MB-231 cells was observed; also recorded: inhibited the growth
same,cell growth inhibition,[7],induced A549 cells growth inhibition in a dose-dependent manner; also recorded: induced A549 cell growth inhibition in dose-dependent amounts
same,CTPS protein level,[8]; 72 hrs (FIG. 7(a)),decreased in a dose-dependent manner
same,Hsp90 protein level,[8]; 72 hrs (FIG. 7(a)),decreased in a dose-dependent manner
same,induction (increase) of acetylated Hsp90 protein,[8]; 72 hrs (FIG. 7(a)),detected in a dose-dependent manner; also recorded: observed in a dose-dependent manner
same,induction (increase) of gelsolin protein,[8]; 72 hrs (FIG. 7(a)),detected in a dose-dependent manner; also recorded: observed in a dose-dependent manner
same,expression of acetylated Histone H3,[8]; 72 hrs (FIG. 7(b)),significantly increased in a dose-dependent manner; also recorded: induced in a dose-dependent manner
same,expression of acetylated Histone H4,[8]; 72 hrs (FIG. 7(b)),significantly increased in a dose-dependent manner; also recorded: induced in a dose-dependent manner
same,expression of acetylated tubulin,[8]; 72 hrs (FIG. 7(b)),significantly increased in a dose-dependent manner; also recorded: induced in a dose-dependent manner
same,expression of p21,[8]; 72 hrs (FIG. 7(b)),significantly increased in a dose-dependent manner; also recorded: induced in a dose-dependent manner
same,cell growth inhibition,[9],Cell growth inhibition was observed
CC(C)=CCOc1c(OCc2ccc(Cl)cc2)c(/C=C\C(=O)NO)cc2ccoc12 [NBM-I-BCX-OS01],inhibition of MDA-MB-231 cells,[2],inhibition of human breast cancer MDA-MB-231 cells
same,inhibition of cell growth,[3],inhibition of cell growth
same,cell cycle arrest phase,[4],arrested the human lung cancer A549 cells on the S and G2/M phases
same,cell cycle arrest phase,[5],arrested the human breast cancer MCF-7 cells on the S and G2/M phases
"COc1ccc(/C=C/C(=O)NO)c(OCc2ccc(Br)cc2)c1CC=C(C)C [NBM-T-BBX-OS01, (E)-2-(4-Bromobenzoxy)-3-prenyl-4-methoxy-N-hydroxy cinamide]",inhibition of MDA-MB-231 cells,[2],inhibition of human breast cancer MDA-MB-231 cells
same,inhibition of cell growth,[3],inhibition of cell growth
same,cell cycle arrest phase,[4],arrested the human lung cancer A549 cells on the S and G2/M phases
same,cell cycle arrest phase,[5],arrested the human breast cancer MCF-7 cells on the S and G2/M phases
"COc1ccc(/C=C/C(=O)NO)c(OCc2ccc(Cl)cc2)c1CC=C(C)C [NBM-T-BCX-OS01, (E)-2-(4-Chlorobenzoxy)-3-prenyl-4-methoxy-N-hydroxy cinamide]",inhibition of MDA-MB-231 cells,[2],inhibition of human breast cancer MDA-MB-231 cells
same,inhibition of cell growth,[3],inhibition of cell growth
same,cell cycle arrest phase,[5],arrested the human breast cancer MCF-7 cells on the S and G2/M phases
"COc1ccc(COc2c(/C=C/C(=O)NO)ccc(OC)c2CC=C(C)C)cc1 [NBM-T-BMX-OS01, (E)-2-(4-Methoxyhenzoxy)-3-prenyl-4-methoxy-N-hydroxy cinamide]",inhibition of MDA-MB-231 cells,[2],inhibition of human breast cancer MDA-MB-231 cells
same,inhibition of cell growth,[3],inhibition of cell growth
same,cell cycle arrest phase,[4],arrested the human lung cancer A549 cells on the S and G2/M phases
same,cell cycle arrest phase,[5],arrested the human breast cancer MCF-7 cells on the S and G2/M phases
